“And” between values parts separate entries of the source, which are not always exact repeats. Equal entries are not always repeated.
System: 616215-338-R-J1-PDC complex spheroid viability
Assay: Anticancer human tumor 616215-338-R-J1-PDC patient-derived colon adenocarcinoma cell line growth inhibition [POLQ]
Conditions: for viability, T/C: stronger effect = lower value; active = viability on the fitted dose curve at most 10% of control; inactive = the rest
Procedure: Multicellular complex tumor spheroid response to Polymerase (POL) inhibitors (novobiocin, ART-558, RP6685) in combination with a variety of drugs and investigational agents in selected tumor cell lines
The POL inhibitors (novobiocin, ART-558, and RP6685) were evaluated both individually and in combination with standard of care and investigational anticancer small molecules within a complex spheroid model of solid tumors. . Complex spheroids include a stromal component modeled by human endothelial cells (HUVEC) and fibroblasts modeled by human mesenchymal stem cells (MSCs). The concentration ranges selected for each drug and investigational agent were based upon clinically achievable concentrations if the clinical Cmax of the agent was known.
Compounds. The drugs and investigational agents: novobiocin (NSC847541), ART-558 (NSC835418), RP-6685 (NSC848927), peposertib (NSC802822), ceralasertib (NSC780249), elimusertib (NSC800525), camonsertib (NSC841442), AZD-1390 (NSC803789), olaparib (NSC753686), talazoparib (NSC767125), rucaparib (NSC756644), sotorasib (NSC818433), MRTX-1133 (NSC836407), SN-38 (NSC673596), topotecan (NSC609699), epotoside (NSC141540), doxorubicin (NSC123127), gemcitabine (NSC613327), 5-fluorouracil (NSC19893), paclitaxel (NSC125973), vemurafenib (NSC761431), MSA-2 (NSC828583), SN-011 (NSC837082), adavosertib (NSC754352), prexasertib (NSC758257), carboplatin (NSC241240) and oxaliplatin (NSC266046), were obtained from the National Cancer Institute (NCI) Developmental Therapeutics Program Chemical Repository (21). The FDA-approved anticancer drug set is available from the Developmental Therapeutics Program at https://dtp.cancer.gov/organization/dscb/obtaining/. […] The stock solutions were prepared in dimethyl sulfoxide (DMSO, Sigma-Aldrich, St. Louis, MO, cat. D2650), except for the platinum compounds which were prepared in saline (Quality Biological, Gaithersburg, MD, cat. 114-055-101), at 800-fold the tested concentration and stored at -70 degrees C prior to their use. All drugs and investigational agents were tested over a range starting from a high concentration at or near the clinical Cmax and decreasing in half-log increments. If the clinical Cmax for an agent had not been determined, the highest concentration tested was 10 microM, except for SN-38, which was tested at a high concentration of 1 microM.
Cell Culture. All cells were maintained in an incubator at 37 degrees C and 5% CO2 with 95% humidity. The PDC lines were cultured according to standard operating procedures established by the NCI PDMR (https://pdmr.cancer.gov). Table 3 of the manuscript, lists the cell lines along with the number of the three cell types plated to form the mct-spheroids and media for tumor cell growth. After thawing, all PDC lines, except 997537-175-T-J1-PDC and 415267-285-R-J2-PDC, were cultured in Matrigel-coated flasks prepared with a working solution of 1X Ham's F-12 nutrient mix, without supplementation (Thermo Fisher Scientific, cat. 11765054), 100 U/mL penicillin-streptomycin (Thermo Fisher Scientific, cat. 15140122), and 2.5% Matrigel (Corning Inc., Corning, NY, cat. 354248) for the first three passages. The two PDC lines 997537-175-T-J1-PDC and 415267-285-R-J2-PDC were cultured on uncoated flasks. The 857933-349-R-J2-PDC line was cultured in 6C/Colon 1B media containing advanced DMEM/F-12 (Thermo Fisher Scientific, cat. 12634028), 10 mM HEPES (Thermo Fisher Scientific, cat. 15630080), 1X GlutaMAX supplement (Thermo Fisher Scientific, cat. 35050061), 0.1 mg/mL primocin (InvivoGen, San Diego, CA, cat. ant-pm-2), 10% defined fetal bovine serum, heat inactivated (HyClone Laboratories Inc., Logan, UT, cat. SH30070.03HI), 50% L-WRN conditioned media (ATCC, cat. CRL-3276), 1.25 mM N-Acetyl-L-cysteine (Sigma-Aldrich, cat. A9165), 10 mM nicotinamide (Sigma-Aldrich, cat. N0636), 1X B-27 supplement (Thermo Fisher Scientific, cat. 17504044), 1X N-2 supplement (Thermo Fisher Scientific, cat. […]
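Also: spheroids exposed to compounds for one week before readout.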
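For viability, T/C in this document: percent viability relative to DMSO vehicle wells taken as 100%.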

CC1COCCN1c1cc(C2(S(C)(=N)=O)CC2)nc(-c2ccnc3[nH]ccc23)n1 (stereo unspecified)
inactive: viability, T/C (compound 0.0316 µM) 99.9% and 97.9% and 100% | viability, T/C (compound 0.1 µM) 107% and 90.8% and 112% | viability, T/C (compound 0.316 µM) 95.8% and 93.9% and 108% | viability, T/C (compound 1 µM) 99.2% and 99.4% and 95.3% | viability, T/C (compound 3.16 µM) 99% and 74.6% and 107% | viability, T/C (compound 10 µM) 71.5% and 39.9% and 74.1%
> 10000 nM and 7180 nM: IC50 (curve of compound)

CC(C)n1c(=O)n(C)c2cnc3cc(F)c(-c4ccc(OCCCN5CCCCC5)nc4)cc3c21
inactive: viability, T/C (compound 0.0316 µM) 112% and 102% and 72.9% | viability, T/C (compound 0.1 µM) 97% and 109% and 75% | viability, T/C (compound 0.316 µM) 106% and 93% and 74.8% | viability, T/C (compound 1 µM) 107% and 94.6% and 79.2% | viability, T/C (compound 3.16 µM) 108% and 101% and 85.2% | viability, T/C (compound 10 µM) 101% and 96% and 72.1%
> 10000 nM: IC50 (curve of compound)

C=CCn1c(=O)c2cnc(Nc3ccc(N4CCN(C)CC4)cc3)nc2n1-c1cccc(C(C)(C)O)n1 + Cc1cccc(N(C)C(=O)C2C(O)CCN2c2nc(C)cc(C(F)(F)F)c2C#N)c1
269 nM: IC50 (curve of first compound, second compound 0.0316 µM)
559 nM: IC50 (curve of first compound, second compound 0.316 µM)
428 nM: IC50 (curve of first compound, second compound 1 µM)
542 nM: IC50 (curve of first compound, second compound 0.1 µM)
inactive: viability, T/C (second compound 0.0316 µM, first compound 0.00316 µM) 110% | viability, T/C (second compound 0.0316 µM, first compound 0.01 µM) 87.5% | viability, T/C (second compound 0.0316 µM, first compound 0.0316 µM) 108% | viability, T/C (second compound 0.0316 µM, first compound 0.1 µM) 86.7% | viability, T/C (second compound 0.0316 µM, first compound 0.316 µM) 44.5% | viability, T/C (second compound 0.0316 µM, first compound 1 µM) 34.3% | viability, T/C (second compound 0.1 µM, first compound 0.00316 µM) 102% | viability, T/C (second compound 0.1 µM, first compound 0.01 µM) 97.4% | viability, T/C (second compound 0.1 µM, first compound 0.0316 µM) 85.7% | viability, T/C (second compound 0.1 µM, first compound 0.1 µM) 93.4% | viability, T/C (second compound 0.1 µM, first compound 0.316 µM) 65.4% | viability, T/C (second compound 0.1 µM, first compound 1 µM) 31.2% | viability, T/C (second compound 0.316 µM, first compound 0.00316 µM) 97.4% | viability, T/C (second compound 0.316 µM, first compound 0.01 µM) 107% | viability, T/C (second compound 0.316 µM, first compound 0.0316 µM) 91.7% | viability, T/C (second compound 0.316 µM, first compound 0.1 µM) 92.4% | viability, T/C (second compound 0.316 µM, first compound 0.316 µM) 67.8% | viability, T/C (second compound 0.316 µM, first compound 1 µM) 31.3% | viability, T/C (second compound 1 µM, first compound 0.00316 µM) 96.8% | viability, T/C (second compound 1 µM, first compound 0.01 µM) 90% | viability, T/C (second compound 1 µM, first compound 0.0316 µM) 92.5% | viability, T/C (second compound 1 µM, first compound 0.1 µM) 76.7% | viability, T/C (second compound 1 µM, first compound 0.316 µM) 58.4% | viability, T/C (second compound 1 µM, first compound 1 µM) 27.8% | viability, T/C (second compound 3.16 µM, first compound 0.00316 µM) 98.1% | viability, T/C (second compound 3.16 µM, first compound 0.01 µM) 91.1% | viability, T/C (second compound 3.16 µM, first compound 0.0316 µM) 93.8% | viability, T/C (second compound 3.16 µM, first compound 0.1 µM) 90.2% | viability, T/C (second compound 3.16 µM, first compound 0.316 µM) 50.9% | viability, T/C (second compound 3.16 µM, first compound 1 µM) 30.9% | viability, T/C (second compound 10 µM, first compound 0.00316 µM) 109% | viability, T/C (second compound 10 µM, first compound 0.01 µM) 90.1% | viability, T/C (second compound 10 µM, first compound 0.0316 µM) 90.2% | viability, T/C (second compound 10 µM, first compound 0.1 µM) 83.8% | viability, T/C (second compound 10 µM, first compound 0.316 µM) 40.9% | viability, T/C (second compound 10 µM, first compound 1 µM) 26.9%
333 nM: IC50 (curve of first compound, second compound 3.16 µM)
250 nM: IC50 (curve of first compound, second compound 10 µM)
